Assay results from PubChem BioAssay AID254 (DTP/NCI, 2004).
Where “and” joins values, the source holds several entries; their conditions need not be identical. Equal entries are not always repeated. Toxic doses and inconclusive results are not listed. How the source made its calls: active means survival T/C of 150% or more; inactive means T/C below 125% in these data.

Test system: L1210 leukemia iv in BDF1 mice, survival T/C
Assay: NCI In Vivo Anticancer Drug Screen. Data for tumor model L1210 Leukemia (intravenous) in B6D2F1 (BDF1) mice
Details: endpoint: mean survival time, higher = longer survival
Description: The antitumor activity of compounds was measured in mice bearing transplantable tumors. Survival or tumor size were measured and the results are expressed as the measurement made in the treated group (T) divided by the measurement made in the vehicle treated control group (C). The tumor model used in this assay is L1210 Leukemia (intravenous) in B6D2F1 (BDF1) mice

Measured: T/C

CN(Cc1cnc2nc(N)nc(N)c2n1)c1ccc(C(=O)N[C@@H](CCC(=O)O)C(=O)O)cc1
inactive: dose: 0.3 mg/kg/injection, schedule: Q01DX008 (ip), vehicle: other 110 % of control | dose: 0.3 mg/kg/injection, schedule: Q01HX008 (ip), vehicle: other 121 % of control | dose: 0.3 mg/kg/injection, schedule: Q03HX008 (ip), vehicle: other 118 % of control | dose: 0.3 mg/kg/injection, schedule: Q06HX008 (ip), vehicle: other 116 % of control | dose: 0.3 mg/kg/injection, schedule: Q12HX008 (ip), vehicle: other 115 % of control | dose: 0.4 mg/kg/injection, schedule: Q01DX008 (ip), vehicle: other 121 % of control | dose: 0.4 mg/kg/injection, schedule: Q01HX008 (ip), vehicle: other 119 % of control | dose: 0.4 mg/kg/injection, schedule: Q03HX008 (ip), vehicle: other 119 % of control | dose: 0.4 mg/kg/injection, schedule: Q06HX008 (ip), vehicle: other 122 % of control | dose: 0.4 mg/kg/injection, schedule: Q12HX008 (ip), vehicle: other 115 % of control | dose: 2.4 mg/kg/injection, schedule: Q01DX001 (ip), vehicle: other 122 % of control | dose: 3.2 mg/kg/injection, schedule: Q01DX001 (ip), vehicle: other 119 % of control

N[C@@H](Cc1ccc(N(CCCl)CCCl)cc1)C(=O)O
inactive: dose: 0.1 mg/kg/injection, schedule: Q01DX015 (ip), vehicle: carboxymethylcellulose (CMC) 94 % of control and 103 % of control | dose: 0.2 mg/kg/injection, schedule: Q01DX015 (ip), vehicle: carboxymethylcellulose (CMC) 107 % of control and 96 % of control | dose: 0.4 mg/kg/injection, schedule: Q01DX015 (ip), vehicle: carboxymethylcellulose (CMC) 107 % of control and 98 % of control | dose: 0.8 mg/kg/injection, schedule: Q01DX015 (ip), vehicle: carboxymethylcellulose (CMC) 100 % of control and 103 % of control | dose: 1.13 mg/kg/injection, schedule: Q01DX001 (ip), vehicle: carboxymethylcellulose (CMC) 105 % of control | dose: 1.6 mg/kg/injection, schedule: Q01DX015 (ip), vehicle: carboxymethylcellulose (CMC) 107 % of control and 101 % of control | dose: 1.7 mg/kg/injection, schedule: Q01DX001 (ip), vehicle: carboxymethylcellulose (CMC) 95 % of control and 102 % of control | dose: 2.25 mg/kg/injection, schedule: Q01DX001 (ip), vehicle: carboxymethylcellulose (CMC) 109 % of control and 96 % of control | dose: 3.0 mg/kg/injection, schedule: Q01DX001 (ip), vehicle: carboxymethylcellulose (CMC) 106 % of control and 97 % of control | dose: 4.5 mg/kg/injection, schedule: Q01DX001 (ip), vehicle: carboxymethylcellulose (CMC) 105 % of control and 113 % of control | dose: 4.75 mg/kg/injection, schedule: Q01DX001 (ip), vehicle: Klucel (hydroxypropylcellulose) (HPC) 104 % of control and 105 % of control | dose: 7.0 mg/kg/injection, schedule: Q01DX001 (ip), vehicle: carboxymethylcellulose (CMC) 105 % of control
active: dose: 9.0 mg/kg/injection, schedule: Q01DX001 (ip), vehicle: carboxymethylcellulose (CMC) 155 % of control | dose: 14.0 mg/kg/injection, schedule: Q01DX001 (ip), vehicle: carboxymethylcellulose (CMC) 181 % of control | dose: 14.25 mg/kg/injection, schedule: Q01DX001 (ip), vehicle: Klucel (hydroxypropylcellulose) (HPC) 177 % of control | dose: 15.0 mg/kg/injection, schedule: Q01DX001 (ip), vehicle: saline 163 % of control and 195 % of control | dose: 18.0 mg/kg/injection, schedule: Q01DX001 (ip), vehicle: carboxymethylcellulose (CMC) 190 % of control and 255 % of control | dose: 19.0 mg/kg/injection, schedule: Q01DX001 (ip), vehicle: Klucel (hydroxypropylcellulose) (HPC) 214 % of control and 215 % of control | dose: 23.75 mg/kg/injection, schedule: Q01DX001 (ip), vehicle: Klucel (hydroxypropylcellulose) (HPC) 177 % of control | dose: 29.0 mg/kg/injection, schedule: Q01DX001 (ip), vehicle: carboxymethylcellulose (CMC) 206 % of control
